{"source": "patent US20240325394A1", "about": "“SALT AND CRYSTAL FORM OF NITROGEN-CONTAINING HETEROCYCLIC DERIVATIVE, PREPARATION METHOD THEREFOR AND APPLICATION THEREOF” (SHANGHAI HANSOH BIOMEDICAL CO., LTD., priority 2020, published 2024)", "key": {"[1]": {"test": "Pharmacokinetics in MiaPaca 2 tumor-bearing mice (plasma, tumor tissue)", "format": "in vivo", "details": "female, mouse, po; Plasma, p.o. 6 mg/kg", "description": "The pharmacokinetic behavior of the compound of the embodiment 13-1 and AMG-510 compound, administered orally at a dose of 6 mg/kg, in mice (plasma, tumor tissue and intestine) was studied using MiaPaca 2 tumor-bearing mice as test animals.\n24 MiaPaca 2 tumor-bearing mice, females. 3 for each time point (0 h, 1 h, 2 h, 4 h, 6 h, 8 h, 16 h, 24 h). Shanghai xipuer-bikai Laboratory Animal Co., Ltd, Animal Production License No. (SCXK (Shanghai) 2018-0006.\nEmbodiment compound 13-1 and compound AMG-510 were weighed and dissolved in the solution, the mixture was shaken well, and ultrasound was performed for 15 minutes to obtain a uniform suspension with a concentration of 0.6 mg/mL.\nMiaPaca 2 tumor-bearing mice were administered at a dose of 6 mg/kg in a volume of 10 mL/kg, respectively, based on body weight p.o. after fasting (animals were not administered at point 0 h).\nBefore and after administration, mice were sacrificed with CO2, 0.5 mL blood was collected from the heart and placed in EDTA-2K tube, centrifuged at 4° C. […] The duodenum, ileum and colon tissues were cut with scissors, the contents were removed and cleaned twice with PBS, after absorbing water with absorbent paper, they were weighed, placed in a 2 mL centrifuge tube and stored at −80° C."}, "hERG potassium channel": {"biological_target": "T1, hERG potassium channel (Homo sapiens, UniProt Q12809)", "T1 construct": "expressed in transfected cells; host or cells: CHO-hERG cells", "T1 sequence (Q12809 whole entry)": "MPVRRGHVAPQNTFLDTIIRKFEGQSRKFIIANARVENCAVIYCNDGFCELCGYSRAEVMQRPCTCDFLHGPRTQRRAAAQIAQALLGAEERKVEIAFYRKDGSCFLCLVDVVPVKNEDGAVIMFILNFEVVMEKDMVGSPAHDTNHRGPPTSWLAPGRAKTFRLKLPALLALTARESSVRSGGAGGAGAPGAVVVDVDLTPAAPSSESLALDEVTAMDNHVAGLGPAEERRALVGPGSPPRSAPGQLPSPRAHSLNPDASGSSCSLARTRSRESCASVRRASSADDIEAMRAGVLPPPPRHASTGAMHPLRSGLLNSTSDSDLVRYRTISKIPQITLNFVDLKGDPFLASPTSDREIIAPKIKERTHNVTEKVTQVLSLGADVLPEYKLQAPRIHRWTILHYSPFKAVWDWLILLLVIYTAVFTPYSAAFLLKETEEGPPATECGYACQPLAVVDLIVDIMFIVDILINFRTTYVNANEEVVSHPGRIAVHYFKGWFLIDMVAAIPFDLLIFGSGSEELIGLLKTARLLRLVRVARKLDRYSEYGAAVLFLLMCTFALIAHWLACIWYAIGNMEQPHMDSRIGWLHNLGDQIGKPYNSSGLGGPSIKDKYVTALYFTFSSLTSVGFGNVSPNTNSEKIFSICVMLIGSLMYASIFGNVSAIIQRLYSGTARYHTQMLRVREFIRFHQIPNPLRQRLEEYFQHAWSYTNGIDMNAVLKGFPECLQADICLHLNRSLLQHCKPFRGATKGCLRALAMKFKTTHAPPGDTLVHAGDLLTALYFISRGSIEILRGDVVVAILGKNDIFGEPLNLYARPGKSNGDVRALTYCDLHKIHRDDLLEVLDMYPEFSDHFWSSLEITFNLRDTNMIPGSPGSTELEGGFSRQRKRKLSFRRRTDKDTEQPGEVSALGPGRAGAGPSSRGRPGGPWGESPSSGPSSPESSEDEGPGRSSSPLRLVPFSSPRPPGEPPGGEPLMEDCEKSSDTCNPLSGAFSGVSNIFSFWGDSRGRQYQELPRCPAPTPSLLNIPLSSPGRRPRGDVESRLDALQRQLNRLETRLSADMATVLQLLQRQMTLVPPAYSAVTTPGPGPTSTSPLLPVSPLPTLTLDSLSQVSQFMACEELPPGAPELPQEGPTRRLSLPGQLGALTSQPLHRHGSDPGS", "test": "hERG potassium channel inhibitory activity test (Qpatch, CHO-hERG cells)", "format": "cell-based", "details": "highest test concentration 40 μM, read-out: hERG (μM), inhibition at multiple concentrations on hERG current", "description": "7.1.1 CHO-hERG cells were cultured in a 175 cm^2 flask, when the cell density reached 60-80%, the culture medium was removed, the cells were washed with 7 mL PBS, and then digested with 3 mL Detachin. 7.1.2 After complete digestion, 7 mL culture medium was added to neutralize, then the mixture was centrifuged, the supernatant was aspirated, and then 5 mL culture medium was added to re-suspend, ensuring 2-5×10^6/mL of cell density.\nThe process of single cell high impedance sealing and whole cell mode formation were all automatically completed by Qpatch instrument, after obtaining the whole cell recording mode, the cells were clamped at −80 mV, before giving a 5-second +40 mV depolarization stimulus, a 50 millisecond −50 mV prevoltage was given first, and then repolarized to −50 mV for 5 seconds, then returned to −80 mV. This voltage stimulation was applied every 15 seconds and recorded for 2 minutes before giving extracellular fluid recordings for 5 minutes, and then the administration process was started, the compound concentration was given from the lowest test concentration, each test concentration was given for 2.5 minutes, and the positive control compound 3 μM of Cisapride was given after all concentrations were continuously given. At least 3 cells (n≥3) were tested at each concentration.\n7.4.1 20 mM of compound mother liquor was diluted with extracellular fluid, 5 μL of 20 mM compound mother liquor was added into 2495 μL of extracellular fluid and diluted 500-fold to 40 μM, and then the final concentration to be tested was obtained by sequential 3-fold serial dilutions in extracellular solution containing 0.2% DMSO. 7.4.2 The highest test concentration was 40 μM, in a total of 6 concentrations of 40, 13.33, 4.44, 1.48, 0.49 and 0.16 μM respectively. 7.4.3 The content of DMSO in the final test concentration was not more than 0.2%, and this concentration of DMSO had no effect on hERG potassium channel.\nThe experimental data were analyzed by XLFit software. […]"}, "[2]": {"tested_on": "human pancreatic cancer cell MiaPaca 2 xenograft (CDX)", "test": "Tumor inhibition on MiaPaca 2 transplanted tumor model", "format": "in vivo, BALB/c nude mice", "details": "oral 6 mg/kg QD×3w", "description": "MiaPaca 2 cells were removed from the cell bank, revived and added to DMEM medium (containing 10% FBS, 1% Glu, 1% P/S) and incubated in a CO2 incubator (incubator temperature was 37° C., CO2 concentration was 5%). After the cells were spread to 80-90% of the bottom of the culture flask, the cells were continued to be cultured in the CO2 incubator. The process was repeated until the number of cells met the in vivo pharmacological inoculation requirement, and the cells in logarithmic growth period were collected and counted with an automatic cell counter, resuspended with PBS and Matrigel (volume ratio 1:1) according to the count results, made into a cell suspension (the density was 8×10^7/mL), and placed in an ice box for use.\nBALB/c nude mice, female, 6-8 weeks old, weighing about 18-22 g. The mice were kept in an environment free of special pathogens and in a single ventilated cage with 5 mice in each cage. […] Nude mice were labeled with disposable universal ear tags for mice and rats before the start of the experiment, and the skin of the inoculation site was disinfected with 75% medical alcohol before inoculation, 0.1 mL (containing 8*10^6 cells) of MiaPaca 2 tumor cells were inoculated subcutaneously on the right back of each mouse. When the tumor volume reached 100-200 mm^3, the group administration was started.\nThe tumor volume (mm^3) was measured with vernier caliper twice a week, the calculation formula was V=[…], wherein D and d were the long and short diameter of the tumor, respectively. The anti-tumor efficacy was determined by dividing the average tumor increased volume of the compound-treated animals by the average tumor increased volume of the untreated animals. The formula of tumor inhibition rate is: TGI (%)=1−[(Vt−V0) administration group/(Vt−V0) solvent control group]*100%. After the experiment, all animals were euthanized."}, "plasma protein": {"tested_on": "plasma protein", "test": "Plasma protein binding rate test, mouse plasma", "format": "in vitro ADME", "details": "5 μM, 37° C., 6 hours", "description": "The embodiment compound was prepared into a 1 mM solution A with DMSO.\nSolution A was added to the plasma solution and prepared into a 5 μM solution B.\n• 1) 200 μL of solution B was added into the membrane. • 2) 350 μL of PBS was added to the outside of the membrane. • 3) Incubating in a 37° C. water bath for 6 hours. • 4) The samples were processed for dilution and detected by mass spectrometry.\n• instrument: Shimadzu LC-20 AD; • chromatographic column: phenomenex Gemiu® C18 (50*4.6 mm, 5 UM particle size); • mobile phase: A: Acetonitrile, B: 0.1% formic acid solution 0-0.5 min: 5% A→90% A, 2.0-2.1 min: 90% A→5% A; flow rate: 0.8 mL/min; running time: 5.0 min; injection volume: 5 μL.\n• instrument: API4000 Liquid Chromatography-Mass Spectrometry, AB, USA; • the ion source was electrospray ionization source (ESI); • the temperature of dry gas (N2) was 500° C.; • electrospray voltage was 5500V; • the detection method was positive ion detection; • the scanning mode was selective response monitoring (MRM); the scanning time was 0.1 s."}}}
{"compound": "C=CC(=O)N1C[C@H](C)N(c2nc(=O)n(-c3c(SC)ccnc3C(C)C)c3nc(-c4c(N)ccc(Cl)c4F)c(Cl)cc23)C[C@H]1C", "note": "(atropisomer, axis not shown) [Embodiment 13-1, P-4-((2S,5R)-4-Acryloyl-2,5-dimethylpiperazin-1-yl)-7-(6-amino-3-chloro-2-fluorophenyl)-6-chloro-1-(2-isopropyl-4-(methylthio)pyridin-3-yl)pyrido[2,3-d]pyrimidin-2(1H)-one]", "values": [{"measurement": "MRT", "setting": "[1]", "value": 54, "unit": "min"}, {"measurement": "half-life", "setting": "[1]", "value": 30, "unit": "min"}, {"measurement": "IC50", "setting": "hERG potassium channel", "value": "> 30", "unit": "µM"}]}
{"compound": "P-4-((2S,5R)-4-acryloyl-2,5-dimethylpiperazin-1-yl)-6-fluoro-7-(2-fluoro-6-hydroxyphenyl)-1-(2-isopropyl-4-(methylthio)pyridin-3-yl)pyrido[2,3-d]pyrimidin-2(1H)-one [Embodiment 2-1]", "values": [{"measurement": "IC50", "setting": "hERG potassium channel", "value": "> 30", "unit": "µM"}, {"measurement": "Tumor volume (mm^3, Mean ± SD) Day 0", "setting": "[2]; Day 0", "value": "177 ± 38", "unit": "mm^3"}, {"measurement": "TGI (%) Day 21", "setting": "[2]; Day 21", "value": 162.36, "unit": "%"}, {"measurement": "Tumor volume (mm^3, Mean ± SD) Day 21", "setting": "[2]; Day 21", "value": "67 ± 34", "unit": "mm^3"}, {"measurement": "ΔT/ΔC (%) Day 21", "setting": "[2]; Day 21", "value": "−62.36", "unit": "%"}, {"measurement": "Plasma protein binding rate, Mouse", "setting": "plasma protein", "value": 88.4}]}
